Reference: US7141680B2, “Aromatic compounds possessing antifungal or antibacterial activity” (Genelabs Technologies, Inc., priority 2002, dated 2006)
Values belong to the compound of their own block, whether it stands above or below them.

System: Aspergillus species
Assay: Minimum inhibitory concentration (MIC) assay, filamentous fungi
Type: cell-based
Conditions: antifungal activity, lowest concentration at which 75% inhibition of growth is observed after 48 h
Protocol: The assays described below were used to measure the minimum inhibitory concentration (MIC) of a compound necessary to inhibit visible growth of the organism tested. These assays are adapted from NCCLS protocols M7-A4 and M27-A (NCCLS vol 17:9 and vol 17:2) as modified by Sandven, S., Clin. Micro. (1999) 37:12, p. 3856–3859. MIC values for Aspergillus species were determined using NCCLS protocol M38-P.
All compounds were dissolved in 100% DMSO to a stock concentration of 10 mM and used fresh stock compounds in powder form were kept frozen until needed and used freshly. When used for test purposes, compounds were diluted in the appropriate media depending on the organism being tested.
For yeast and aspergillus species, seven 1:2 serial dilutions of compound in appropriate media buffered with MOPS at pH 7.0 were prepared such that the final starting test compound concentrations were 44.4 μM for yeast and 50 μM aspergillus species. For bacteria, dilutions were made in growth media used for the particular bacteria being tested.
Inoculums are made by incubating Aspergillus species for 7 days at 35° C. on potato dextrose agar slants. Slants are then covered with 1.0 mL of 0.85% saline, one drop of Tween 20 is added and colonies are teased with a sterile transfer loop to create a suspension which is allowed to sit for 5 min so heavier particles can drop out. The upper suspension is separated and adjusted to an optical density of 0.09 to 0.11. The resulting suspension is diluted 1:50, which yields 2× the final inoculum needed. Micro dilution trays are prepared as with yeast and incubated for 48 h at 35° C. For our purposes the MIC is defined as the lowest compound concentration at which 75% inhibition of growth is observed after 48 h.

Compound: N=C(N)NCNC(=O)c1ccc2[nH]c(C(=O)Nc3ccc4cc(C(=O)NCNC(=N)N)[nH]c4c3)cc2c1 [Compound 173, 1H-Indole-2,5-dicarboxylic acid 5-guanidinomethyl-amide 2-{[2-(guanidinomethyl-carbamoyl)-1H-indol-6-yl]-amide}]
MIC: ≤ 50 µM

Compound: N=C(N)NCCNC(=O)c1ccc2[nH]c(C(=O)Nc3ccc4[nH]c(C(=O)NCCNC(=N)N)nc4c3)cc2c1 [Compound 175, 1H-Indole-2,5-dicarboxylic acid 5-[(2-guanidino-ethyl)-amide] 2-{[2-(2-guanidino-ethylcarbamoyl)-1H-benzoimidazol-5-yl]-amide)]
MIC: ≤ 50 µM

Compound: CN(CCNC(=N)N)C(=O)c1ccc2[nH]c(C(=O)Nc3ccc4cc(C(=O)NCCNC(=N)N)[nH]c4c3)cc2c1 [Compound 176, 1H-Indole-2,5-dicarboxylic acid 2-{[2-(2-guanidino-ethylcarbamoyl)-1H-indol-6-yl]-amide} 5-[(2-guanidino-ethyl)-methyl-amide]]
MIC: ≤ 50 µM

Compound: N=C(N)NCCNC(=O)c1ccc2sc(C(=O)Nc3ccc4sc(C(=O)NCCNC(=N)N)cc4c3)cc2c1 [Compound 177, Benzo[b]thiophene-2,5-dicarboxylic acid 5-[(2-guanidino-ethyl)-amide]2-{[2-(2-guanidino-ethylcarbamoyl)-benzo[b]thiophen-5-yl]-amide}]
MIC: ≤ 50 µM

Compound: N=C(N)NCCNC(=O)c1ccc2[nH]c(C(=O)Nc3ccc4cc(C(=O)NCCNC(=N)N)sc4c3)cc2c1 [Compound 178, 1H-Indole-2,5-dicarboxylic acid 5-[(2-guanidino-ethyl)-amide] 2-{[2-(2-guanidino-ethylcarbamoyl)-benzo[b]thiophen-6-yl]-amide}]
MIC: ≤ 50 µM

Compound: CNCCNC(=O)c1cc2ccc(NC(=O)c3cc4cc(C(=O)NCCNC(=N)N)ccc4[nH]3)cc2[nH]1 [Compound 182, 1H-Indole-2,5-dicarboxylic acid 5-[(2-guanidinoethyl)amide] 2-{[2-(2-methylaminoethylcarbamoyl)-1H-indol-6-yl]amide}]
MIC: ≤ 50 µM

Next, values leading:

MIC: ≤ 50 µM
Compound: CC(=N)NCCNC(=O)c1cc2cc(NC(=O)c3ccc4[nH]c(C(=O)NCCNC(C)=N)cc4c3)ccc2[nH]1 [Compound 9]

MIC: ≤ 50 µM
Compound: N=C(N)NCCNC(=O)c1ccc(C(=O)Nc2ccc3[nH]c(C(=O)NCCNC(=N)N)cc3c2)cc1 [Compound 70, N-(2-Guanidino-ethyl)-N′-[2-(2-guanidino-ethylcarbamoyl)-1H-indol-5-yl]-terephthalamide]

MIC: ≤ 50 µM
Compound: N=C(N)NCCNC(=O)c1cc2cc(NC(=O)c3cc4cc(NC(=O)CNC(=N)N)ccc4o3)ccc2[nH]1 [Compound 135, 5-{[5-(2-guanidino-acetylamino)-benzofuran-2-carbonyl]-amino}-1H-indole-2-carboxylic acid (2-guanidino-ethyl)-amide]

MIC: ≤ 50 µM
Compound: N=C(N)NCCNC(=O)c1cc2cc(NC(=O)c3cc4cc(NC(=O)CNC(=N)N)ccc4[nH]3)ccc2[nH]1 [Compound 138, 5-{[5-(2-guanidino-acetylamino)-1H-indole-2-carbonyl]-amino}-1H-indole-2-carboxylic acid (2-guanidino-ethyl)-amide]

MIC: ≤ 50 µM
Compound: C[n+]1ccccc1NCCNC(=O)c1ccc2[nH]c(C(=O)Nc3ccc4cc(C(=O)NCCNc5cccc[n+]5C)[nH]c4c3)cc2c1 [Compound 170, 1H-Indole-2,5-dicarboxylic acid 5-[(2-(1-methylpyridiniu-2-yl)amino-ethyl)-amide] 2-{[2-(2-(1-methylpyridiniu-2-yl)amino-ethylcarbamoyl)-1H-indol-6-yl]-amide}]

MIC: ≤ 50 µM
Compound: N=C(N)NCCNC(=O)c1cc2ccc(NC(=O)c3cc4cc(C(=O)NCNC(=N)N)ccc4[nH]3)cc2[nH]1 [Compound 172, 1H-Indole-2,5-dicarboxylic acid 2-{[2-(2-guanidino-ethylcarbamoyl)-1H-indol-6-yl]-amide} 5-guanidinomethyl-amide]
